Target: PRS (prolyl-tRNA synthetase) protein, PRS portion of EPRS (Homo sapiens (Human), UniProt P07814)
Assay: PRS enzyme activity inhibition experiment ([3H]proline, liquid scintillation)
Assay type: biochemical
Conditions: purified PRS protein, 37° C. for 5 to 10 minutes
Method: In order to confirm the biological activities of the compounds prepared in Examples, % inhibition or IC50 values of PRS enzyme ([…]) activities were calculated.
Specifically, the portion corresponding to PRS in cDNA of EPRS was subcloned, and the obtained high-purity PRS protein was purified and used in the experiment. The compounds (1 μM) prepared in Examples were added into the reaction buffer (20 mM KPO4 (pH 7.4), 6 mM MgAc, 5 mM ATP, […] tRNA, 0.5 mM DTT, […][^3H]proline (1 mCi/mL)) and allowed to react at 37° C. for 5 to 10 minutes. The reaction was terminated with 3M paper that was in advance dried by addition of 5% TCA. The radioactivity was measured using a liquid scintillation counter.
% Inhibition and IC50 values of the respective compounds were calculated and analyzed using Microsoft Excel or Sigma Plot 8.0. In Tables 1 to 3, the results are divided into A, B and C according to the range of IC50. The case where the derived IC50 is 100 nM or less is represented by “A”, the case where the IC50 is 100 to 500 nM is represented by “B”, and the case where the IC50 is 500 nM or higher is represented by “C”.

PRS (prolyl-tRNA synthetase) protein, PRS portion of EPRS, sequence (P07814 1007-1512): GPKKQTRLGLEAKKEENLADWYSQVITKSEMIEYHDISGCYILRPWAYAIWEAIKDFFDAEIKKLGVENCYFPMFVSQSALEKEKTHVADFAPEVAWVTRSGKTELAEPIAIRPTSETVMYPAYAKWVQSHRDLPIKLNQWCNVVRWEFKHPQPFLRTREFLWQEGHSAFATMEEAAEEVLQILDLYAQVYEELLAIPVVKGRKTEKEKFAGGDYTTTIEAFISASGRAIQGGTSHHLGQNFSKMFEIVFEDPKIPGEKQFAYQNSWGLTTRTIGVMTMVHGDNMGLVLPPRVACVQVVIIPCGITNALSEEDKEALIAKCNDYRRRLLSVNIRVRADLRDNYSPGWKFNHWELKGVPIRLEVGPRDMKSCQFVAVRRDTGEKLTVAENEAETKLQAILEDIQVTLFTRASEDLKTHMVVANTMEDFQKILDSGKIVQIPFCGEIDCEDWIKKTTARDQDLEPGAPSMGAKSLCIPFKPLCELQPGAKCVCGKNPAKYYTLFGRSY

Compound | IC50
O[C@H]1CCCN[C@@H]1CCCn1cnc2cc(C(F)(F)F)cc(-c3cccc(F)c3)c21 [Example 84, (2R,3S)-2-(3-(7-(3-fluorophenyl)-5-(trifluoromethyl)-1H-benzo[d]imidazol-1-yl)propyl)piperidin-3-ol] | ≥ 500 nM
O[C@H]1CCCN[C@@H]1CCCn1cnc2cc(Cl)cc(-c3cncc(F)c3)c21 [Example 87, (2R,3S)-2-(3-(5-chloro-7-(5-fluoropyridin-3-yl)-1H-benzo[d]imidazol-1-yl)propyl)piperidin-3-ol] | 100 to 500 nM
Cn1cc(-c2cc(Cl)cc3ncn(CCC[C@H]4NCCC[C@@H]4O)c23)ccc1=O [Example 88, 5-(5-chloro-1-(3-((2R,3S)-3-hydroxypiperidin-2-yl)propyl)-1H-benzo[d]imidazol-7-yl)-1-methylpyridin-2(1H)-one] | ≥ 500 nM
O[C@H]1CCCN[C@@H]1CCCn1cnc2cc(Cl)cc(-c3ccon3)c21 [Example 90, (2R,3S)-2-(3-(5-chloro-7-(Isoxazol-3-yl)-1H-benzo[d]imidazol-1-yl)propyl)piperidin-3-ol] | 100 to 500 nM
Cc1sccc1-c1cc(Cl)cc2ncn(CCC[C@H]3NCCC[C@@H]3O)c12 [Example 92, (2R,3S)-2-(3-(5-chloro-7-(2-methylthiophen-3-yl)-1H-benzo[d]imidazol-1-yl)propyl)piperidin-3-ol] | 100 to 500 nM
Cc1noc(C)c1-c1cc(Cl)cc2ncn(CCC[C@H]3NCCC[C@@H]3O)c12 [Example 93, (2R,3S)-2-(3-(5-chloro-7-(3,5-dimethylisoxazol-4-yl)-1H-benzo[d]imidazol-1-yl)propyl)piperidin-3-ol] | ≥ 500 nM
O[C@H]1CCCN[C@@H]1CCCn1cnc2cc(Cl)cc(C3=CCOCC3)c21 [Example 94, (2R,3S)-2-(3-(5-chloro-7-(3,6-dihydro-2H-pyran-4-yl)-1H-benzo[d]imidazol-1-yl)propyl)piperidin-3-ol] | 100 to 500 nM
O[C@H]1CCCN[C@@H]1CCCn1cnc2cc(Cl)cc(-c3cnn(CC4OCCO4)c3)c21 [Example 95, (2R,3S)-2-(3-(7-(1-((1,3-dioxolan-2-yl)methyl)-1H-pyrazol-4-yl)-5-chloro-1H-benzo[d]imidazol-1-yl)propyl)piperidin-3-ol] | 100 to 500 nM
Cn1cncc1-c1cc(Cl)cc2ncn(CCC[C@H]3NCCC[C@@H]3O)c12 [Example 96, (2R,3S)-2-(3-(5-chloro-7-(1-methyl-1H-imidazol-5-yl)-1H-benzo[d]imidazol-1-yl)propyl)piperidin-3-ol] | ≥ 500 nM
O[C@H]1CCCN[C@@H]1CCCn1cnc2cccc(N3CCCC3)c21 [Example 98, (2R,3S)-2-(3-(7-(pyrrolidin-1-yl)-1H-benzo[d]imidazol-1-yl)propyl)piperidin-3-ol] | 100 to 500 nM
O[C@H]1CCCN[C@@H]1CCCn1cnc2cc(Cl)cc(-c3cnc(C4CC4)s3)c21 [Example 100, (2R,3S)-2-(3-(5-chloro-7-(2-cyclopropylthiazol-5-yl)-1H-benzo[d]imidazol-1-yl)propyl)piperidin-3-ol] | 100 to 500 nM
O[C@H]1CCCN[C@@H]1CCCn1cnc2cc(Cl)cc(-c3cnn(C4COC4)c3)c21 [Example 102, (2R,3S)-2-(3-(5-chloro-7-(1-(oxetan-3-yl)-1H-pyrazol-4-yl)-1H-benzo[d]imidazol-1-yl)propyl)piperidin-3-ol] | 100 to 500 nM
O[C@H]1CCCN[C@@H]1CCCn1cnc2cc(Cl)cc(-c3csc(C4CCOCC4)n3)c21 [Example 103, (2R,3S)-2-(3-(5-chloro-7-(2-(tetrahydro-2H-pyran-4-yl)thiazol-4-yl)-1H-benzo[d]imidazol-1-yl)propyl)piperidin-3-ol] | ≥ 500 nM
N#Cc1nc(-c2cc(Cl)cc3ncn(CCC[C@H]4NCCC[C@@H]4O)c23)cs1 [Example 105, 4-(5-chloro-1-(3-((2R,3S)-3-hydroxypiperidin-2-yl)propyl)-1H-benzo[d]imidazol-7-yl)thiazole-2-carbonitrile] | ≥ 500 nM
CC(C)(C)n1cc(-c2cc(Cl)cc3ncn(CCC[C@H]4NCCC[C@@H]4O)c23)cn1 [Example 106, (2R,3S)-2-(3-(7-(1-(tert-butyl)-1H-pyrazol-4-yl)-5-chloro-1H-benzo[d]imidazol-1-yl)propyl)piperidin-3-ol] | 100 to 500 nM
CC(C)CCn1cc(-c2cc(Cl)cc3ncn(CCC[C@H]4NCCC[C@@H]4O)c23)cn1 [Example 107, (2R,3S)-2-(3-(5-chloro-7-(1-isopentyl-1H-pyrazol-4-yl)-1H-benzo[d]imidazol-1-yl)propyl)piperidin-3-ol] | 100 to 500 nM
CC(C)n1cc(-c2cc(Cl)cc3ncn(CCC[C@H]4NCCC[C@@H]4O)c23)cn1 [Example 108, (2R,3S)-2-(3-(5-chloro-7-(1-isopropyl-1H-pyrazol-4-yl)-1H-benzo[d]imidazol-1-yl)propyl)piperidin-3-ol] | 100 to 500 nM
CCOC(=O)c1occc1-c1cc(Cl)cc2ncn(CCC[C@H]3NCCC[C@@H]3O)c12 [Example 110, ethyl 3-(5-chloro-1-(3-((2R,3S)-3-hydroxypiperidin-2-yl)propyl)-1H-benzo[d]imidazol-7-yl)furan-2-carboxylate] | ≥ 500 nM

Continued, values first:

IC50 | Compound
100 to 500 nM | Cc1ncc(-c2cc(Cl)cc3ncn(CCC[C@H]4NCCC[C@@H]4O)c23)s1 [Example 85, (2R,3S)-2-(3-(5-chloro-7-(2-methylthiazol-5-yl)-1H-benzo[d]imidazol-1-yl)propyl)piperidin-3-ol]
100 to 500 nM | O[C@H]1CCCN[C@@H]1CCCn1cnc2cc(Cl)cc(-c3cccnc3)c21 [Example 86, (2R,3S)-2-(3-(5-chloro-7-(pyridin-3-yl)-1H-benzo[d]imidazol-1-yl)propyl)piperidin-3-ol]
≤ 100 nM | O[C@H]1CCCN[C@@H]1CCCn1cnc2cc(Cl)cc(-c3cnn(C(F)F)c3)c21 [Example 89, (2R,3S)-2-(3-(5-chloro-7-(1-(difluoromethyl)-1H-pyrazol-4-yl)-1H-benzo[d]imidazol-1-yl)propyl)piperidin-3-ol]
≤ 100 nM | O[C@H]1CCCN[C@@H]1CCCn1cnc2cc(Cl)cc(-c3ccsc3)c21 [Example 91, (2R,3S)-2-(3-(5-chloro-7-(thiophen-3-yl)-1H-benzo[d]imidazol-1-yl)propyl)piperidin-3-ol]
≤ 100 nM | Cn1cc(-c2cc(Cl)cc3ncn(CCC[C@H]4NCCC[C@@H]4O)c23)cn1 [Example 97, (2R,3S)-2-(3-(5-chloro-7-(1-methyl-1H-pyrazol-4-yl)-1H-benzo[d]imidazol-1-yl)propyl)piperidin-3-ol]
≤ 100 nM | O[C@H]1CCCN[C@@H]1CCCn1cnc2cc(Cl)cc(N3CCCC3)c21 [Example 99, (2R,3S)-2-(3-(5-chloro-7-(pyrrolidin-1-yl)-1H-benzo[d]imidazol-1-yl)propyl)piperidin-3-ol]
≤ 100 nM | O[C@H]1CCCN[C@@H]1CCCn1cnc2cc(Cl)cc(-c3cnn(-c4nccs4)c3)c21 [Example 101, (2R,3S)-2-(3-(5-chloro-7-(1-(thiazol-2-yl)-1H-pyrazol-4-yl)-1H-benzo[d]imidazol-1-yl)propyl)piperidin-3-ol]
≤ 100 nM | O[C@H]1CCCN[C@@H]1CCCn1cnc2cc(Cl)cc(-c3ccoc3)c21 [Example 104, (2R,3S)-2-(3-(5-chloro-7-(furan-3-yl)-1H-benzo[d]imidazol-1-yl)propyl)piperidin-3-ol]
≤ 100 nM | Cc1cscc1-c1cc(Cl)cc2ncn(CCC[C@H]3NCCC[C@@H]3O)c12 [Example 109, (2R,3S)-2-(3-(5-chloro-7-(4-methylthiophen-3-yl)-1H-benzo[d]imidazol-1-yl)propyl)piperidin-3-ol]
